# Experimental data published in patent US20230212164A1, “ANNULATED 2-AMINO-3-CYANO THIOPHENES AND DERIVATIVES FOR THE TREATMENT OF CANCER” (BOEHRINGER INGELHEIM INTERNATIONAL GMBH, priority 2020, published 2023).
# Columns and labels:
# [1] = target: KRASG12-dependent Ba/F3 cells (Homo sapiens, UniProt P01116, G12C, cells depend on it); assay: Ba/F3 cell model proliferation assay (AlamarBlue, 72 h); type: cell-based; conditions: Ba/F3 cells transduced with KRASG12C, read-out: IC50 Ba/F3 KRASG12C
# Protocol: Ba/F3 Cell Model Generation and Proliferation Assay
# Plasmids containing KRASG12 mutants were obtained from GeneScript. To generate KRASG12-dependent Ba/F3 models, Ba/F3 cells were transduced with retroviruses containing vectors that harbor KRASG12 isoforms. Platinum-E cells (Cell Biolabs) were used for retrovirus packaging. Retrovirus was added to Ba/F3 cells. To ensure infection, 4 μg/mL polybrene was added and cells were spinfected. […] Cells with an infection efficiency of 10% to 20% were further cultivated and puromycin selection with 1 μg/mL was initiated. As a control, parental Ba/F3 cells were used to show selection status. Selection was considered successful when parental Ba/F3 cells cultures died. To evaluate the transforming potential of KRASG12 mutations, the growth medium was no longer supplemented with IL-3. Ba/F3 cells harboring the empty vector were used as a control. Approximately ten days before conducting the experiments, puromycin was left out.
# All treatments were performed in technical duplicates. The assay is run using a fully automated robotic system. Treated cells were incubated for 72 h at 37° C. with 5% CO2.
# AlamarBlue™ (ThermoFisher), a viability stain, was added and fluorescence measured in the PerkinElmer Envision HTS Multilabel Reader.
# [2] = system: pERK (Thr202/Tyr204) in NCI-H358_Cas9_SOS2 (SOS2 knocked); assay: ERK phosphorylation assay 2 (AlphaLISA SureFire Ultra p-ERK1/2); conditions: read-out: IC50 H358 pERK, ERK phosphorylation assay 2 (values marked with *)
# Protocol: ERK Phosphorylation Assay
# Low IC50 values in this assay setting are indicative of high potency of the compounds according to the invention.
# GFP positive cells were collected and further expanded. These GFP-positive cell pools were single-cell diluted and SOS2 knock-out clones were identified via Western-blot and genomic DNA sequencing analysis.
# Materials Used for the Assay:
# (§1) AlphaLISA SureFire Ultra p-ERK1/2 (Thr202/Tyr204) Assay Kit (ALSU-PERK-A500)
# Cells are seeded at 40,000 cells per well in /60 μL of RPMI with 10% FBS, non-essential amino acids, pyruvate and glutamax in Greiner TC 384 plates. The cells are incubated for 1 h at room temperature and then incubated overnight in an incubator at 37° C. and 5% CO2 in a humidified atmosphere. 60 nL compound solution (10 mM DMSO stock solution) is then added using a Labcyte Echo 550 device. After a 1 h incubation in the aforementioned incubator the medium is removed after centrifugation and the cells lysed by addition of 20 μL of 1.6-fold lysis buffer from the AlphaLISA SureFire Ultra pERK1/2 (Thr202/Tyr204) Assay Kit with added protease inhibitors, 100 nM trametinib+100 nM staurosporine. After 20 minutes of incubation at room temperature with shaking, 6 μL of each lysate sample is transferred to a 384-well Proxiplate and analyzed for pERK (Thr202/Tyr204) with the AlphaLISA SureFire Ultra pERK1/2 (Thr202/Tyr204) Assay Kit. 3 μL Acceptor Mix and 3 μL Donor Mix are added under subdued light and incubated for 2 h at room temperature in the dark, before the signal is measured on a PerkinElmer Envision HTS Multilabel Reader. The raw data were imported into and analyzed with the Boehringer Ingelheim proprietary software MegaLab (curve fitting based on the program PRISM, GraphPad Inc.).
# [3] = target: T1, protein-protein interaction between SOS1 and KRAS G12C (Homo sapiens, UniProt P01116, C118S/C51S/C80L/G12C); assay: KRAS::SOS1 AlphaScreen binding assay; conditions: Table 36
# T1 construct: His6 (N)
# Protocol: KRAS::SOS1 AlphaScreen Binding Assay
# Assay buffer: • 1×PBS • 0.1% BSA • 0.05% Tween 20
# AlphaLISA Glutathione Acceptor Beads and AlphaScreen Streptavidin Donor Beads are mixed in assay buffer at a concentration of 10 μg/mL (final assay concentration) each prior to use and kept at room temperature.
# Compounds are diluted to a final start concentration of 100 μM and are tested in duplicate. […] For compound a start concentration of 100 μM, 150 nL of compound solution is transferred per well in 11 concentrations in duplicate with serial 1:5 dilutions.
# The assay is run using a fully automated robotic system in a darkened room below 100 Lux. 10 μL of KRAS::SOS1 GDP mix is added into columns 1-24 to the 150 nL of compound solution (final dilution in the assay 1:100, final DMSO concentration 1%).
# After 30 minutes incubation time 5 μL of bead mix is added into columns 1-23. Plates are kept at room temperature in a darkened incubator. After further 60 minutes incubation, the signal is measured using a PerkinElmer Envision HTS Multilabel Reader using the AlphaScreen specifications from PerkinElmer. Each plate contains the following controls: • diluted DMSO+KRAS::SOS1 GDP mix+bead mix • diluted DMSO+KRAS::SOS1 GDP mix
# IC50 values are calculated and analyzed using a 4 parametric logistic model.
# [4] = system: pERK (Thr202/Tyr204) in NCI-H358 (KRAS G12C mutation); assay: ERK phosphorylation assay 1 (AlphaLISA SureFire Ultra p-ERK1/2); conditions: Homo sapiens, NCI-H358, read-out: IC50 H358 pERK
# Protocol: ERK Phosphorylation Assay
# Materials Used for the Assay:
# as §1
# The cells are incubated for 1 h at room temperature and then incubated overnight in an incubator at 37° C. and 5% CO2 in a humidified atmosphere. 60 nL compound solution (10 mM DMSO stock solution) is then added using a Labcyte Echo 550 device. […] After 20 minutes of incubation at room temperature with shaking, 6 μL of each lysate sample is transferred to a 384-well Proxiplate and analyzed for pERK (Thr202/Tyr204) with the AlphaLISA SureFire Ultra pERK1/2 (Thr202/Tyr204) Assay Kit. 3 μL Acceptor Mix and 3 μL Donor Mix are added under subdued light and incubated for 2 h at room temperature in the dark, before the signal is measured on a PerkinElmer Envision HTS Multilabel Reader. The raw data were imported into and analyzed with the Boehringer Ingelheim proprietary software MegaLab (curve fitting based on the program PRISM, GraphPad Inc.).
# KRASG12-dependent Ba/F3 cells, sequence (P01116 whole entry G12C): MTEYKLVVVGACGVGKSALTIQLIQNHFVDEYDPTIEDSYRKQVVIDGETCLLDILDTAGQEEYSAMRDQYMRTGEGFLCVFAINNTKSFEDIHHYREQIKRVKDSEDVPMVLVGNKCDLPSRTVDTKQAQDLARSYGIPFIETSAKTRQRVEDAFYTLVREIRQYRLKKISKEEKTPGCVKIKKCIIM
# T1 sequence (P01116 1-169 isoform P01116-2 G12C/C51S/C80L/C118S): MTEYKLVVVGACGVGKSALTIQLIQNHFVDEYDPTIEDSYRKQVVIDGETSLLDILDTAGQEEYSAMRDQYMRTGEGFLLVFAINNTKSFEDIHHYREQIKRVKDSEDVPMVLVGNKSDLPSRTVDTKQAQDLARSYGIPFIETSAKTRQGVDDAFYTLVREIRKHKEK
Compound,GI50 [1] [µM],IC50 [2] [µM],IC50 [3] [µM],IC50 [4] [µM]
C=CC(=O)N1CC(Oc2cc(O[C@@H](C)[C@@H]3CCCN3C)nc(-c3noc([C@@]4(C)CCCc5sc(N)c(C#N)c54)n3)c2)C1 [Ia-3],0.0003,0.0005,0.0012,–
C=CC(=O)N1CCC(Oc2cc(O[C@@H](C)[C@@H]3CCCN3C)nc(-c3noc([C@@]4(C)CCCc5sc(N)c(C#N)c54)n3)c2)CC1 [Ia-4],0.001,0.0011,0.0017,–
C=CC(=O)N1CCCC(Oc2cc(-c3noc([C@@]4(C)CCCc5sc(N)c(C#N)c54)n3)nc(N3CCCN(C)C[C@@H]3C)c2)C1 (stereo partly shown) [Ia-6],–,0.206,0.311,–
C=CC(=O)N1CCN(c2cc(-c3noc(C4(C)CCCc5sc(N)c(C#N)c54)n3)nc(N3CCCN(CCCOC)C[C@@H]3C)c2)CC1 (stereo partly shown) [Ia-19],0.0256,–,0.005,0.0062
C=CC(=O)N1CCN(c2cc(O[C@@H](C)[C@@H]3CCCN3C)nc(-c3noc([C@@]4(C)CCCc5sc(N)c(C#N)c54)n3)c2)CC1 [Ia-26],0.0033,0.0015,0.0019,–
C=CC(=O)N1CCN(c2cc(-c3noc(C4(C)CCCc5sc(N)c(C#N)c54)n3)nc(N3CCC4(CCN(C)CC4)CC3)c2)CC1 (stereo not shown) [Ia-34],4.38,–,0.259,0.282
C=CC(=O)N1CCN(c2cc(-c3noc(C4(C)CCCc5sc(N)c(C#N)c54)n3)nc(N3CCC(N4CC[C@@H](F)C4)CC3)c2)CC1 (stereo partly shown) [Ia-39],0.0876,–,0.01,0.0062
C=CC(=O)N1CCN(c2cc(-c3noc([C@@]4(C)CCCc5sc(N)c(C#N)c54)n3)nc(OC3CCC4CCN(C)C43)n2)CC1 (stereo partly shown) [Ia-48],0.0976,0.0213,0.008,–
C=CC(=O)N1CCN(c2cc(-c3noc([C@@]4(C)CCCc5sc(N)c(C#N)c54)n3)nc(OC3CCCC34CCCN4C)n2)CC1 (stereo partly shown) [Ia-49],0.026,0.0104,0.004,–
C=CC(=O)N1CCN(c2cc(-c3noc([C@@]4(C)CCCc5sc(N)c(C#N)c54)n3)nc(OC3C4CC5CN(C)C3C5C4)n2)CC1 (stereo partly shown) [Ia-50],0.496,0.121,0.011,–
C=CC(=O)N1CCN(c2cc(-c3noc([C@@]4(C)CCCc5sc(N)c(C#N)c54)n3)nc(O[C@H]3C4CC5CN(C)[C@@H]3[C@H]5C4)n2)CC1 (stereo partly shown) [Ia-51],–,0.0985,0.019,–
C=CC(=O)N1CCN(c2cc(-c3noc([C@@]4(C)CCCc5sc(N)c(C#N)c54)n3)nc(O[C@@H](C)[C@@H]3CCCN3C)n2)C(C)C1C (stereo partly shown) [Ia-53],0.0043,0.0031,0.0018,–
C=CC(=O)N1CC[C@H](C)N(c2cc(-c3noc([C@@]4(C)CCCc5sc(N)c(C#N)c54)n3)nc(O[C@@H](C)[C@@H]3CCCN3C)n2)CC1 [Ia-55],0.0242,0.0098,0.002,–
C=CC(=O)N1C2CCC1CN(c1cc(-c3noc([C@@]4(C)CCCc5sc(N)c(C#N)c54)n3)nc(O[C@@H](C)[C@@H]3CCCN3C)n1)C2 [Ia-59],0.0325,0.0055,0.003,–
C=CC(=O)N1CCN(c2cc(-c3noc([C@@]4(C)CCCc5sc(N)c(C#N)c54)n3)nc(OC3CC4CCC(C3)N4C)n2)CC1 (stereo partly shown) [Ia-70],–,0.413,0.049,–

# Results, then the molecule that gave them:
GI50 [1] [µM],IC50 [2] [µM],IC50 [3] [µM],IC50 [4] [µM],Compound
0.303,0.0621,0.105,–,C=CC(=O)N1[C@H](C)CN(c2cc(-c3noc([C@@]4(C)CCCc5sc(N)c(C#N)c54)n3)nc(O[C@@H](C)[C@@H]3CCCN3C)n2)C[C@H]1C [Ia-56]
0.0059,0.0009,0.0015,–,C=CC(=O)N1CCN(c2cc(-c3noc([C@@]4(C)CCCc5sc(N)c(C#N)c54)n3)nc(O[C@@H](C)[C@@H]3CCCN3C)n2)CC12CC2 [Ia-57]
3.48,0.3,0.319,–,C=CC(=O)N1CCCN(c2cc(-c3noc([C@@]4(C)CCCc5sc(N)c(C#N)c54)n3)nc(O[C@@H](C)[C@@H]3CCCN3C)n2)[C@@H](C)C1 [Ia-58]
0.0059,0.0028,0.0017,–,C=CC(=O)N1CCN(c2cc(-c3noc([C@@]4(C)CCCc5sc(N)c(C#N)c54)n3)nc(O[C@@H](C)[C@@H]3CCCN3C)n2)C2CCCC21 (stereo partly shown) [Ia-60]
0.015,0.0109,0.0026,–,C=CC(=O)N1CCN(c2cc(-c3noc([C@@]4(C)CCCc5sc(N)c(C#N)c54)n3)nc(O[C@@H](C)[C@@H]3CCCN3C)n2)C[C@H]1C [Ia-63]
–,0.124,0.009,–,C=CC(=O)N1CCN(c2cc(-c3noc([C@@]4(C)CCCc5sc(N)c(C#N)c54)n3)nc(OC(C)CN3CCN(C)CC3)n2)CC1 (stereo partly shown) [Ia-66]
–,0.177,0.015,–,C=CC(=O)N1CCN(c2cc(-c3noc([C@@]4(C)CCCc5sc(N)c(C#N)c54)n3)nc(OC3(CN4CCCC4)CC3)n2)CC1 [Ia-67]
–,0.269,0.027,–,C=CC(=O)N1CCN(c2cc(-c3noc([C@@]4(C)CCCc5sc(N)c(C#N)c54)n3)nc(O[C@H]3CCN(C)[C@H]3C)n2)CC1 [Ia-68]
–,0.298,0.023,–,C=CC(=O)N1CCN(c2cc(-c3noc([C@@]4(C)CCCc5sc(N)c(C#N)c54)n3)nc(OC3CC4(CCN(C)C4)C3)n2)CC1 (stereo partly shown) [Ia-69]
0.0237,0.0214,0.003,–,C=CC(=O)N1CCN(c2cc(-c3noc([C@@]4(C)CCCc5sc(N)c(C#N)c54)n3)nc(OC[C@@H]3C[C@@H]4C[C@@H]4N3C)n2)CC1 [Ia-71]
–,0.139,0.222,–,C=CC(=O)N1CCN(c2cc(-c3noc([C@@]4(C)CCCc5sc(N)c(C#N)c54)n3)nc(N3CCOC[C@@H]3C)n2)CC1 [Ia-73]
–,0.553,0.18,–,C=CC(=O)N1CCN(c2cc(-c3noc([C@@]4(C)CCCc5sc(N)c(C#N)c54)n3)nc(N3CC[C@H](O)[C@@H]3C)n2)CC1 [Ia-75]
–,1,0.391,–,C=CC(=O)N1CCN(c2cc(-c3noc([C@@]4(C)CCCc5sc(N)c(C#N)c54)n3)nc(N3CCC4(CC(O)C4)C3)n2)CC1 (stereo partly shown) [Ia-76]
0.0126,–,0.011,0.0041,C=CC(=O)N1CCC(Oc2cc(-c3noc(C4(C)CCCc5sc(N)c(C#N)c54)n3)nc(N3CCN(C)C[C@@H]3C)c2)CC1 (stereo partly shown) [Ia-114]
0.208,–,0.031,0.0064,C=CC(=O)N1CCN(c2cc(-c3noc([C@@]4(C)CCCc5sc(N)c(C#N)c54)n3)nc(N3CCN(C)CC3)c2)CC1 [Ia-116]
1.43,–,0.06,0.0221,C=CC(=O)N1CCN(c2cc(O[C@@H]3CCN(C)C3)nc(-c3noc([C@@]4(C)CCCc5sc(N)c(C#N)c54)n3)c2)CC1 [Ia-127]
0.681,–,0.064,0.0133,[2H]C([2H])([2H])N1CCN(c2cc(N3CCN(C(=O)C=C)CC3)cc(-c3noc(C4(C)CCCc5sc(N)c(C#N)c54)n3)n2)CC1 (stereo not shown) [Ia-128]
0.0225,–,0.006,0.0064,C=CC(=O)N1CCN(c2cc(-c3noc([C@@]4(C)CCCc5sc(N)c(C#N)c54)n3)nc(N3CCCN(CCOC)C[C@@H]3C)n2)CC1 [Ia-129]
0.0374,–,0.007,0.0166,C=CC(=O)N1CCN(c2cc(-c3noc([C@@]4(C)CCCc5sc(N)c(C#N)c54)n3)nc(N3CCCN(CCOC)C[C@@H]3C)c2)CC1 [Ia-130]
0.0224,–,0.005,0.0062,C=CC(=O)N1CCN(c2cc(-c3noc([C@@]4(C)CCCc5sc(N)c(C#N)c54)n3)nc(N3CCCN(C)C[C@@H]3C)n2)CC1 [Ia-131]
–,0.0078,0.002,–,C=CC(=O)N1CCN(c2cc(-c3noc([C@@]4(C)CCCc5sc(N)c(C#N)c54)n3)nc(O[C@@H](CC)[C@@H]3CCCN3C)n2)CC1 [Ia-138]
